Laboratory results reported in ChEMBL document CHEMBL4229455, “Synthesis and anticancer activity of novel bisindolylhydroxymaleimide derivatives with potent GSK-3 kinase inhibition” (Bioorg Med Chem, 2018).

Key:
Assay type in all cases: functional
SR = assay: Cytotoxicity against human SR cells assessed as cell growth at 0.01 uM after 48 hrs by SRB assay relative to control; settings: read-out: Activity
NCI-H226 [1] = assay: Cytotoxicity against human NCI-H226 cells assessed as cell growth at 0.01 uM after 48 hrs by SRB assay relative to control; settings: NCI-H226, 48 h, read-out: Activity
NCI-H522 = assay: Cytotoxicity against human NCI-H522 cells assessed as cell growth at 0.01 uM after 48 hrs by SRB assay relative to control; settings: NCI-H522, 48 h, read-out: Activity
SF-268 [2] = assay: Cytotoxicity against human SF268 cells assessed as cell growth at 0.01 uM after 48 hrs by SRB assay relative to control; settings: SF-268, 48 h, read-out: Activity
SF-295 = assay: Cytotoxicity against human SF295 cells assessed as cell growth at 0.01 uM after 48 hrs by SRB assay relative to control; settings: SF-295, 48 h, read-out: Activity
SK-MEL-2 = assay: Cytotoxicity against human SK-MEL-2 cells assessed as cell growth at 0.01 uM after 48 hrs by SRB assay relative to control; settings: SK-MEL-2, 48 h, read-out: Activity
Hs-578T [3] = assay: Cytotoxicity against human Hs 578T cells assessed as cell growth at 0.01 uM after 48 hrs by SRB assay relative to control; settings: read-out: Activity
A549 = assay: Cytotoxicity against human A549 cells assessed as cell growth at 0.1 uM after 48 hrs by SRB assay relative to control; settings: A549, 48 h, read-out: Activity
HOP-92 [4] = assay: Cytotoxicity against human HOP92 cells assessed as cell growth at 0.1 uM after 48 hrs by SRB assay relative to control; settings: HOP-92, 48 h, read-out: Activity
HT-29 [5] = assay: Cytotoxicity against human HT-29 cells assessed as cell growth at 0.1 uM after 48 hrs by SRB assay relative to control; settings: HT-29, 48 h, read-out: Activity
SW-620 [6] = assay: Cytotoxicity against human SW620 cells assessed as cell growth at 0.1 uM after 48 hrs by SRB assay relative to control; settings: SW-620, 48 h, read-out: Activity
SF-268 [7] = assay: Cytotoxicity against human SF268 cells assessed as cell growth at 0.1 uM after 48 hrs by SRB assay relative to control; settings: SF-268, 48 h, read-out: Activity
Malme-3M = assay: Cytotoxicity against human MALME-3M cells assessed as cell growth at 0.1 uM after 48 hrs by SRB assay relative to control; settings: read-out: Activity
A498 = assay: Cytotoxicity against human A498 cells assessed as cell growth at 0.1 uM after 48 hrs by SRB assay relative to control; settings: A498, 48 h, read-out: Activity
HL-60(TB) = assay: Cytotoxicity against human HL-60(TB) cells assessed as cell growth at 1 uM after 48 hrs by SRB assay relative to control; settings: HL-60, 48 h, read-out: Activity
NCI-H226 [8] = assay: Cytotoxicity against human NCI-H226 cells assessed as cell growth at 1 uM after 48 hrs by SRB assay relative to control; settings: NCI-H226, 48 h, read-out: Activity
HCT-15 = assay: Cytotoxicity against human HCT15 cells assessed as cell growth at 1 uM after 48 hrs by SRB assay relative to control; settings: HCT-15, 48 h, read-out: Activity
LOX IMVI = assay: Cytotoxicity against human LOXIMVI cells assessed as cell growth at 1 uM after 48 hrs by SRB assay relative to control; settings: read-out: Activity
UACC-257 = assay: Cytotoxicity against human UACC257 cells assessed as cell growth at 1 uM after 48 hrs by SRB assay relative to control; settings: UACC-257, 48 h, read-out: Activity
SK-OV-3 = assay: Cytotoxicity against human SKOV3 cells assessed as cell growth at 1 uM after 48 hrs by SRB assay relative to control; settings: SK-OV-3, 48 h, read-out: Activity
DU-145 [9] = assay: Cytotoxicity against human DU145 cells assessed as cell growth at 1 uM after 48 hrs by SRB assay relative to control; settings: DU-145, 48 h, read-out: Activity
MDA-MB-468 = assay: Cytotoxicity against human MDA-MB-468 cells assessed as cell growth at 1 uM after 48 hrs by SRB assay relative to control; settings: MDA-MB-468, 48 h, read-out: Activity
HOP-92 [10] = assay: Cytotoxicity against human HOP92 cells assessed as cell growth at 100 uM after 48 hrs by SRB assay relative to control; settings: HOP-92, 48 h, read-out: Activity
HT-29 [11] = assay: Cytotoxicity against human HT-29 cells assessed as cell growth at 100 uM after 48 hrs by SRB assay relative to control; settings: HT-29, 48 h, read-out: Activity
SW-620 [12] = assay: Cytotoxicity against human SW620 cells assessed as cell growth at 100 uM after 48 hrs by SRB assay relative to control; settings: SW-620, 48 h, read-out: Activity
SF-539 = assay: Cytotoxicity against human SF539 cells assessed as cell growth at 100 uM after 48 hrs by SRB assay relative to control; settings: SF-539, 48 h, read-out: Activity
SK-MEL-5 = assay: Cytotoxicity against human SK-MEL-5 cells assessed as cell growth at 100 uM after 48 hrs by SRB assay relative to control; settings: SK-MEL-5, 48 h, read-out: Activity
OVCAR-3 = assay: Cytotoxicity against human OVCAR3 cells assessed as cell growth at 100 uM after 48 hrs by SRB assay relative to control; settings: OVCAR-3, 48 h, read-out: Activity
OVCAR-8 = assay: Cytotoxicity against human OVCAR8 cells assessed as cell growth at 100 uM after 48 hrs by SRB assay relative to control; settings: OVCAR-8, 48 h, read-out: Activity
786-0 [13] = assay: Cytotoxicity against human 786-O cells assessed as cell growth at 100 uM after 48 hrs by SRB assay relative to control; settings: 786-0, 48 h, read-out: Activity
Hs-578T [14] = assay: Cytotoxicity against human Hs 578T cells assessed as cell growth at 100 uM after 48 hrs by SRB assay relative to control; settings: read-out: Activity
HOP-62 = assay: Cytotoxicity against human HOP62 cells after 48 hrs by SRB assay; settings: HOP-62, 48 h; for CC50: read-out: LC50 (the source's name)
UACC-62 = assay: Cytotoxicity against human UACC62 cells after 48 hrs by SRB assay; settings: UACC-62, 48 h
786-0 [15] = assay: Cytotoxicity against human 786-O cells after 48 hrs by SRB assay; settings: 786-0, 48 h
RXF 393 = assay: Cytotoxicity against human RXF393 cells after 48 hrs by SRB assay; settings: RXF 393, 48 h
DU-145 [16] = assay: Cytotoxicity against human DU145 cells after 48 hrs by SRB assay; settings: DU-145, 48 h
T47D = assay: Cytotoxicity against human T47D cells after 48 hrs by SRB assay

For N#CCCCCCn1cc(C2=C(c3cn(CCCCCC#N)c4ccccc34)C(=O)N(O)C2=O)c2ccccc21, the growth at 0.01 µM (SR) was 84%, the growth at 0.01 µM (NCI-H226 [1]) was 95% and the growth at 0.01 µM (NCI-H522) was 89%. It also gave a growth at 0.01 µM (SF-268 [2]) of 97%, a growth at 0.01 µM (SF-295) of 98% and a growth at 0.01 µM (SK-MEL-2) of 100%. It also gave a growth at 0.01 µM (Hs-578T [3]) of 93%, a growth at 0.1 µM (A549) of 102% and a growth at 0.1 µM (HOP-92 [4]) of 97%. The growth at 0.1 µM (HT-29 [5]) was 103%, the growth at 0.1 µM (SW-620 [6]) was 97% and the growth at 0.1 µM (SF-268 [7]) was 95%. For the same molecule, the growth at 0.1 µM (Malme-3M) was 94%, the growth at 0.1 µM (A498) was 82% and the growth at 1 µM (HL-60(TB)) was 100%. For the same molecule, the growth at 1 µM (NCI-H226 [8]) was 89%, the growth at 1 µM (HCT-15) was 92% and the growth at 1 µM (LOX IMVI) was 71%. The growth at 1 µM (UACC-257) was 97%, the growth at 1 µM (SK-OV-3) was 86% and the growth at 1 µM (DU-145 [9]) was 107%. It also gave a growth at 1 µM (MDA-MB-468) of 106%, a growth at 100 µM (HOP-92 [10]) of 11% and a growth at 100 µM (HT-29 [11]) of -33%. The growth at 100 µM (SW-620 [12]) was 7%, the growth at 100 µM (SF-539) was -36% and the growth at 100 µM (SK-MEL-5) was -80%. It also gave a growth at 100 µM (OVCAR-3) of -34%, a growth at 100 µM (OVCAR-8) of 3% and a growth at 100 µM (786-0 [13]) of 6%. For the same molecule, the growth at 100 µM (Hs-578T [14]) was 5%, the GI50 (HOP-62) was 7.94 µM and the TGI (HOP-62) was > 100 µM. The CC50 (HOP-62) was > 100 µM, the GI50 (UACC-62) was 3.23 µM and the LC50 (UACC-62) was 84.4 µM. The TGI (UACC-62) was 16 µM, the GI50 (786-0 [15]) was 10.3 µM and the LC50 (786-0 [15]) was > 100 µM. For the same molecule, the TGI (786-0 [15]) was > 100 µM, the GI50 (RXF 393) was 3.15 µM and the LC50 (RXF 393) was > 100 µM. For the same molecule, the TGI (RXF 393) was 12.2 µM, the GI50 (DU-145 [16]) was 27.8 µM and the LC50 (50% lethal concentration) (DU-145 [16]) was > 100 µM. The TGI (DU-145 [16]) was > 100 µM, the GI50 (T47D) was 4.15 µM and the LC50 (T47D) was > 100 µM. For the same molecule, the TGI (T47D) was 60.5 µM.
Cn1cc(C2=C(c3cn(C)c4ncccc34)C(=O)NC2=O)c2ccccc21 was tested, and the growth at 0.01 µM (SR) was 89%, the growth at 0.01 µM (NCI-H226 [1]) was 99% and the growth at 0.01 µM (NCI-H522) was 90%. The growth at 0.01 µM (SF-268 [2]) was 103%, the growth at 0.01 µM (SF-295) was 98% and the growth at 0.01 µM (SK-MEL-2) was 109%. For the same molecule, the growth at 0.01 µM (Hs-578T [3]) was 91%, the growth at 0.1 µM (A549) was 94% and the growth at 0.1 µM (HOP-92 [4]) was 83%. The growth at 0.1 µM (HT-29 [5]) was 107%, the growth at 0.1 µM (SW-620 [6]) was 96% and the growth at 0.1 µM (SF-268 [7]) was 102%. For the same molecule, the growth at 0.1 µM (Malme-3M) was 112%, the growth at 0.1 µM (A498) was 73% and the growth at 1 µM (HL-60(TB)) was 113%. The growth at 1 µM (NCI-H226 [8]) was 86%, the growth at 1 µM (HCT-15) was 84% and the growth at 1 µM (LOX IMVI) was 74%. The growth at 1 µM (UACC-257) was 112%, the growth at 1 µM (SK-OV-3) was 77% and the growth at 1 µM (DU-145 [9]) was 104%. For the same molecule, the growth at 1 µM (MDA-MB-468) was 78%, the growth at 100 µM (HOP-92 [10]) was -21% and the growth at 100 µM (HT-29 [11]) was -10%. The growth at 100 µM (SW-620 [12]) was -19%, the growth at 100 µM (SF-539) was -64% and the growth at 100 µM (SK-MEL-5) was -94%. It also gave a growth at 100 µM (OVCAR-3) of -19%, a growth at 100 µM (OVCAR-8) of -15% and a growth at 100 µM (786-0 [13]) of -19%. The growth at 100 µM (Hs-578T [14]) was -37%, the GI50 (HOP-62) was 3.69 µM and the TGI (HOP-62) was 36.7 µM. For the same molecule, the CC50 (HOP-62) was > 100 µM, the GI50 (UACC-62) was 4.22 µM and the TGI (UACC-62) was 22 µM. For the same molecule, the GI50 (786-0 [15]) was 3.59 µM, the TGI (786-0 [15]) was 23.7 µM and the GI50 (RXF 393) was 1.95 µM. The TGI (RXF 393) was 5.32 µM, the GI50 (DU-145 [16]) was 6.24 µM and the TGI (DU-145 [16]) was 36.2 µM. It also gave a GI50 (T47D) of 2.37 µM and a TGI (T47D) of 30.3 µM.
